# Data as given in patent US20240002350A1, “PROTEIN AND LIPID THERAPEUTIC TARGETS” (UNIVERSITY OF PITTSBURGH-OF THE COMMONWEALTH SYSTEM OF …, priority 2020, published 2024).
# Tested on: 15LOX/PEBP1
# Test: Potency of 15LOX/PEBP1 inhibitors with anti-ferroptotic effect (Table 1)
# Type: cell-based
# Source text: Development and testing of new compounds that inhibit 15LOX/PEBP1 complex activity. A combination of computational and experimental studies are used. […] Computer modeling considers specific features of organization of 15LOX/PEBP1 complexes and positioning of AA-PE as well as regio-specific oxygenation of AA-residues at 15th carbon. […] It has been shown that: i) binding interface of 15LOX in 15LOX/PEBP1 complex includes a helix on 15LOX (α2) and kinase binding epitope (D144, H145, R146) on PEBP1 (FIG. 8); and ii) interfacial interactions play a pivotal role in allosterically altering conformational dynamics of 15LOX in complex, and its substrate specificity. Analysis of change in access to catalytic site upon PEBP1 binding, using elastic network models indicates needed sites at 15LOX/PEBP1 binding interface. Dynamics simulations are also performed, for 15LOX alone and 15LOX/PEBP1 complex. An effective inhibitor, NCG-01, with in vivo activity has been indicated. Several other 15LOX/PEBP1 inhibitors with anti-ferroptotic effect (FIG. 9) have been identified. To test the effectiveness of compounds identified from the computational screen, RSL3 and mechanical stretch models with LDH and PI assays as a primary outcome are performed. The compounds that inhibit cell death by at least 50% are then evaluated for their effects on AA-PE and AA oxidation by 15LOX/PEBP1 complex and 15LOX alone, respectively, by LC-MS. Evaluation of the effect of compounds in suppressing AA-PE-OOH formation in cells upon proferroptotic stimuli is also performed.
row,SMILES,Potency
1,"Fc1cccc(-n2cc(-c3ccccc3)nc2SCc2cccc(Br)c2)c1 [Compound 46, 2-((3-bromobenzyl)thio)-1-(3-fluorophenyl)-4-phenyl-1H-imidazole]",+ (+ > 1 μM)
2,"O=C(Nc1nc(-c2ccccc2)cn1-c1cccc(F)c1)c1ccc(C(F)(F)F)cc1 [Compound 31, N-(1-(3-fluorophenyl)-4-phenyl-1H-imidazol-2-yl)-4-(trifluoromethyl)benzamide]",+ (+ > 1 μM)
3,"Fc1cccc(-n2cc(-c3ccccc3)nc2SCc2ccc(Br)cc2)c1 [Compound 34, 2-((4-bromobenzyl)thio)-1-(3-fluorophenyl)-4-phenyl-1H-imidazole]",+ (+ > 1 μM)
4,"Fc1cccc(-n2cc(-c3ccccc3)nc2NCc2ccc(C(F)(F)F)c(Br)c2)c1 [Compound 66, N-(3-bromo-4-(trifluoromethyl)benzyl)-1-(3-fluorophenyl)-4-phenyl-1H-imidazol-2-amine]",++ (++ = 101-1000 nM)
5,"Cc1cccc(CNc2nc(-c3ccccc3)cn2-c2cccc(F)c2)c1 [Compound 57, 1-(3-fluorophenyl)-N-(3-methylbenzyl)-4-phenyl-1H-imidazol-2-amine]",++ (++ = 101-1000 nM)
6,"Fc1cccc(-n2cc(-c3ccccc3)nc2SCc2ccccc2)c1 [Compound 37, 2-(benzylthio)-1-(3-fluorophenyl)-4-phenyl-1H-imidazole]",+ (+ > 1 μM)
7,"COc1cccc(-n2cc(-c3ccccc3)nc2SCc2ccc(C(F)(F)F)cc2)c1 [Compound 29, 1-(3-methoxyphenyl)-4-phenyl-2-((4-(trifluoromethyl)benzyl)thio)-1H-imidazole]",+ (+ > 1 μM)
8,"CS(=O)(=O)c1ccc(CSc2nc(-c3ccccc3)cn2-c2cccc(F)c2)cc1 [Compound 40, 1-(3-fluorophenyl)-2-((4-(methylsulfonyl)benzyl)thio)-4-phenyl-1H-imidazole]",+ (+ > 1 μM)
9,"Fc1cccc(-n2cc(-c3ccccc3)nc2NCc2ccc(F)c(F)c2)c1 [Compound 64, N-(3,4-difluorobenzyl)-1-(3-fluorophenyl)-4-phenyl-1H-imidazol-2-amine]",++ (++ = 101-1000 nM)
10,"CC(Sc1nc(-c2ccccc2)cn1-c1cccc(F)c1)c1ccccc1 (stereo not shown) [Compound 38, 1-(3-fluorophenyl)-4-phenyl-2-((1-phenylethyl)thio)-1H-imidazole]",+ (+ > 1 μM)
11,"Fc1cccc(-n2cc(-c3ccccc3)nc2NCc2ccc(C(F)(F)F)cc2)c1 [Compound 32, 1-(3-fluorophenyl)-4-phenyl-N-(4-(trifluoromethyl)benzyl)-1H-imidazol-2-amine]",++ (++ = 101-1000 nM)
12,"N#Cc1ccc(CNc2nc(-c3ccccc3)cn2-c2cccc(F)c2)cc1 [Compound 56, 4-(((1-(3-fluorophenyl)-4-phenyl-1H-imidazol-2-yl)amino)methyl)benzonitrile]",++ (++ = 101-1000 nM)
13,"Fc1ccccc1-n1cc(-c2ccccc2)nc1SCc1ccc(C(F)(F)F)cc1 [Compound 14, 1-(2-fluorophenyl)-4-phenyl-2-((4-(trifluoromethyl)benzyl)thio)-1H-imidazole]",+ (+ > 1 μM)
14,"Cc1ccc(CSc2nc(-c3ccccc3)cn2-c2cccc(F)c2)cc1 [Compound 33, 1-(3-fluorophenyl)-2-((4-methylbenzyl)thio)-4-phenyl-1H-imidazole]",+ (+ > 1 μM)
15,"FC(F)(F)c1ccc(CSc2nc(-c3ccccc3)cn2-c2cccc(Br)c2)cc1 [Compound 24, 1-(3-bromophenyl)-4-phenyl-2-((4-(trifluoromethyl)benzyl)thio)-1H-imidazole]",+ (+ > 1 μM)
16,"Fc1cccc(-n2cc(-c3ccccc3)nc2SCc2ccc(C(F)F)cc2)c1 [Compound 52, 2-((4-(difluoromethyl)benzyl)thio)-1-(3-fluorophenyl)-4-phenyl-1H-imidazole]",+ (+ > 1 μM)
17,"CC(=O)Nc1ccc(CSc2nc(-c3ccccc3)cn2-c2cccc(F)c2)cc1 [Compound 49, N-(4-(((1-(3-fluorophenyl)-4-phenyl-1H-imidazol-2-yl)thio)methyl)phenyl)acetamide]",+ (+ > 1 μM)
18,"C[S+](=O)([O-])c1cccc(-n2cc(-c3ccccc3)nc2SCc2ccc(C(F)(F)F)cc2)c1 [Compound 23, 1-(3-(methylsulfonyl)phenyl)-4-phenyl-2-((4-(trifluoromethyl)benzyl)thio)-1H-imidazole]",+ (+ > 1 μM)
19,"Fc1cccc(-n2cc(-c3ccccc3)nc2SCc2ccc(OC(F)F)cc2)c1 [Compound 51, 2-((4-(difluoromethoxy)benzyl)thio)-1-(3-fluorophenyl)-4-phenyl-1H-imidazole]",+ (+ > 1 μM)

row,SMILES,Potency
1,"COc1cc(CNc2nc(-c3ccccc3)cn2-c2cccc(F)c2)ccc1C(F)(F)F [Compound 67, 1-(3-fluorophenyl)-N-(3-methoxy-4-(trifluoromethyl)benzyl)-4-phenyl-1H-imidazol-2-amine]",++ (++ = 101-1000 nM)
2,"FC(F)Oc1cccc(-n2cc(-c3ccccc3)nc2SCc2ccc(C(F)(F)F)cc2)c1 [Compound 28, 1-(3-(difluoromethoxy)phenyl)-4-phenyl-2-((4-(trifluoromethyl)benzyl)thio)-1H-imidazole]",+ (+ > 1 μM)
3,"Fc1cccc(-n2cc(-c3ccccc3)nc2SCc2ccc(Cl)cc2)c1 [Compound 42, 2-((4-chlorobenzyl)thio)-1-(3-fluorophenyl)-4-phenyl-1H-imidazole]",+ (+ > 1 μM)
4,"CC(C)c1ccc(CSc2nc(-c3ccccc3)cn2-c2cccc(F)c2)cc1 [Compound 47, 1-(3-fluorophenyl)-2-((4-isopropylbenzyl)thio)-4-phenyl-1H-imidazole]",+ (+ > 1 μM)
5,"FC(F)(F)c1ccc(-c2cn(-c3ccccc3)c(SCc3ccccc3)n2)cc1 [Compound 4, 2-(benzylthio)-1-phenyl-4-(4-(trifluoromethyl)phenyl)-1H-imidazole]",+ (+ > 1 μM)
6,"Fc1cccc(-n2cc(-c3ccc(Br)cc3)nc2SCc2ccc(C3(C(F)(F)F)N=N3)cc2)c1 [Compound 65, 4-(4-bromophenyl)-1-(3-fluorophenyl)-2-((4-(3-(trifluoromethyl)-3H-diazirin-3-yl)benzyl)thio)-1H-imidazole]",+ (+ > 1 μM)
7,"Fc1cccc(-n2cc(-c3ccccc3)nc2SCc2ccc(C(F)(F)F)cc2F)c1 [Compound 48, 2-((2-fluoro-4-(trifluoromethyl)benzyl)thio)-1-(3-fluorophenyl)-4-phenyl-1H-imidazole]",+ (+ > 1 μM)
8,"FC(F)(F)c1ccc(CSc2nc(-c3ccc(C(F)(F)F)cc3)cn2-c2ccccc2)cc1 [Compound 6, 1-phenyl-2-((4-(trifluoromethyl)benzyl)thio)-4-(4-(trifluoromethyl)phenyl)-1H-imidazole]",+ (+ > 1 μM)
9,"Fc1cc(F)cc(-n2cc(-c3ccccc3)nc2SCc2ccc(C(F)(F)F)cc2)c1 [Compound 21, 1-(3,5-difluorophenyl)-4-phenyl-2-((4-(trifluoromethyl)benzyl)thio)-1H-imidazole]",dead
10,"NS(=O)(=O)c1ccc(CSc2nc(-c3ccccc3)cn2-c2cccc(F)c2)cc1 [Compound 44, 4-(((1-(3-fluorophenyl)-4-phenyl-1H-imidazol-2-yl)thio)methyl)benzenesulfonamide]",+ (+ > 1 μM)
11,"Fc1cccc(-n2cc(-c3ccccc3)nc2NCc2cccc(C(F)(F)F)c2F)c1 [Compound 58, N-(2-fluoro-3-(trifluoromethyl)benzyl)-1-(3-fluorophenyl)-4-phenyl-1H-imidazol-2-amine]",++ (++ = 101-1000 nM)
12,"Cc1cccc(CSc2nc(-c3ccccc3)cn2-c2cccc(F)c2)c1 [Compound 43, 1-(3-fluorophenyl)-2-((3-methylbenzyl)thio)-4-phenyl-1H-imidazole]",+ (+ > 1 μM)
13,"NC(=O)c1ccc(CSc2nc(-c3ccccc3)cn2-c2cccc(F)c2)cc1 [Compound 50, 4-(((1-(3-fluorophenyl)-4-phenyl-1H-imidazol-2-yl)thio)methyl)benzamide]",+ (+ > 1 μM)
14,"COc1cccc(CNc2nc(-c3ccccc3)cn2-c2cccc(F)c2)c1 [Compound 62, 1-(3-fluorophenyl)-N-(3-methoxybenzyl)-4-phenyl-1H-imidazol-2-amine]",++ (++ = 101-1000 nM)
15,"FC(F)(F)c1ccc(CSc2nc(-c3ccccc3)cn2-c2cccc(C(F)(F)F)c2)cc1 [Compound 25, 4-phenyl-2-((4-(trifluoromethyl)benzyl)thio)-1-(3-(trifluoromethyl)phenyl)-1H-imidazole]",+ (+ > 1 μM)
16,"Fc1cccc(-n2cc(-c3ccccc3)nc2NCc2ccccc2)c1 [Compound 61, N-benzyl-1-(3-fluorophenyl)-4-phenyl-1H-imidazol-2-amine]",++ (++ = 101-1000 nM)
17,"Fc1ccc(-n2cc(-c3ccccc3)nc2SCc2ccc(C(F)(F)F)cc2)cc1 [Compound 11, 1-(4-fluorophenyl)-4-phenyl-2-((4-(trifluoromethyl)benzyl)thio)-1H-imidazole]",+ (+ > 1 μM)
18,"FC(F)(F)Oc1cccc(-n2cc(-c3ccccc3)nc2SCc2ccc(C(F)(F)F)cc2)c1 [Compound 30, 4-phenyl-1-(3-(trifluoromethoxy)phenyl)-2-((4-(trifluoromethyl)benzyl)thio)-1H-imidazole]",+ (+ > 1 μM)
